Reference: article PMC8298375 (Naunyn-Schmiedeberg's Archives of Pharmacology, 2021)
Where a name gives a salt, the structure may show the parent alone.

Assays:
[1] = parameters: method as in Jann [2000]; conditions: ref Jann [2000], cited from earlier work
[2] = system: cholinesterase enzyme; parameters: method as in Emerich and Walsh [1990]; conditions: 2.5 mg/kg via the oral route; ref Emerich and Walsh [1990]; cited from earlier work
[3] = In vitro release studies, release kinetics and mechanism (dialysis sac); assay type: physicochemical; conditions: PBS pH 7.4, dialysis sac
Description: In vitro release studies were performed using dialysis sac (Sigma membrane, MW cut-off 13 kDa) method. Two milligram equivalent of rivastigmine-loaded nanoparticles were weighed and suspended in 2 mL of phosphate buffer saline (pH 7.4). Samples were withdrawn at predetermined time intervals and analyzed by HPLC method. In order to maintain sink conditions, an equal volume of PBS was replaced. The whole experiment was performed at […]. Based on the cumulative drug release vs. time profiles, the release kinetics models and mechanism were proposed (Akbuǧa and Bergişadi [1997]).

[4] = system: AChE; assay type: in vivo, rat; conditions: scopolamine model, listed as pure drug
Description: Samples were then centrifuged at 10,000 rpm for 5 min, and plasma was stored at − 70 °C until analysis.
Thiocholine, which was produced due to the hydrolysis of acetylthiocholine (ACTI) by AChE, was estimated by making it react with 5, 5′-dithiobis-(2-nitrobenzoic acid) (DTNB). The chemical, 5-thio-2-nitrobenzoic acid (yellow color complex), which was released due to reaction was estimated using a UV spectrophotometer in the range of 400 to 420 nm with maximal absorption at 412 nm. One hundred microliter of blank rat plasma was taken in the polypropylene vials. To this, 2.8 mL of phosphate buffer (0.01 M, pH 8) and 100 µL of DTNB reagents were added and mixed well. Then, 20 µL of ACTI (26.01 mg/mL of Milli-Q water) was added to the contents of the cuvette to initiate the enzyme reaction. The reaction kinetics was monitored at different time intervals (0, 1, 2, 3, 4 min), and absorbance was noted. 2.8 mL buffer (0.01 M, pH 8.0) and 100 µL DTNB reagent served as blank. Concentrations in the range of 0.03–30 mM were prepared using methanol as a diluent. […] Substrate concentration and reaction time were optimized such that sufficient concentration of ACTI is available to bind with the enzyme to initiate the reaction and also it should not saturate the enzyme. In this study, varying concentrations (100–1000 µM) of ACTI were prepared, and reaction kinetics were observed. In general, the maximum time should be either 2–4 min or even less, because the enzyme might undergo degradation. In the present study, up to 4 min of reaction kinetics (changing the optical density or absorbance) was measured. One unit of AChE activity is defined as the number of µmol of acetylthiocholine iodide hydrolyzed per minute. The specific activity of AChE is expressed in moles/min/mg of protein (Kaur et al. [2015]): AChEActivity=(abs.permin×1000×volumeofenzyme)/(13600×TRM)AChEActivity=abovevalue×1000(nanomolar/min/mL)
where 13,600 = molar extinction coefficient of DTNB: 1000-molar conversion factor: (TRM) total reaction mixture 3 mL: volume of enzyme (0.1 mL).

[5] = parameters: method as in Arumugam [2009]; conditions: male vs female rats; ref Arumugam [2009]; cited from earlier work
[6] = parameters: method as in Jann [2000]; conditions: ref Jann [2000]; cited from earlier work

CCN(C)C(=O)Oc1cccc([C@H](C)N(C)C)c1 [Rivastigmine, Rivastigmine hydrogen tartrate]
bioavailability ([1]; oral): 36–40% | plasma elimination half-life [1]: 1.5 h | inhibition of the cholinesterase enzyme in the cortex and hippocampus [2]: 20–30% | drug released within 2 h [3]: 85% | peak AChE inhibition (Emax, maximum inhibition) in plasma [4]: 71.95% | elimination rate constant, male rats versus female rats [5]: 2.5 fold | log P predicted [6]: 2.45
